According to ChEMBL document CHEMBL4359834 (J Med Chem, 2019):

How the values were obtained:
[1] = Inhibition of Class 1 PI3K/mTOR in human A2058 cells assessed as reduction in Akt phosphorylation at Ser473 residue incubated for 1 hr by InCell Western assay; type: cell-based; settings: A2058, 1 h
[2] = target: Phosphatidylinositol 4,5-bisphosphate 3-kinase catalytic subunit alpha isoform (Homo sapiens, UniProt P42336); assay: Displacement of Alexafluor labelled kinase tracer314 from recombinant N-terminal His6-tagged PI3K p110alpha (unknown origin) incubated for 1 hr by FRET-based LanthaScreen Eu kinase binding assay
[3] = target: Serine/threonine-protein kinase mTOR (Homo sapiens, UniProt P42345); assay: Displacement of Alexafluor labelled kinase tracer314 from recombinant human C-terminal GST-tagged mTOR (1360 to 2549 amino acids) expressed in insect cells incubated for 1 hr by FRET-based LanthaScreen Eu kinase binding assay
cells = settings: Homo sapiens, A2058, 1 h
Description: Inhibition of Class 1 PI3K/mTOR in human A2058 cells assessed as reduction in S6 phosphorylation at Ser235/236 residue incubated for 1 hr by InCell Western assay

Sequence of Phosphatidylinositol 4,5-bisphosphate 3-kinase catalytic subunit alpha isoform (P42336 whole entry, the tested form may be a part, canonical isoform): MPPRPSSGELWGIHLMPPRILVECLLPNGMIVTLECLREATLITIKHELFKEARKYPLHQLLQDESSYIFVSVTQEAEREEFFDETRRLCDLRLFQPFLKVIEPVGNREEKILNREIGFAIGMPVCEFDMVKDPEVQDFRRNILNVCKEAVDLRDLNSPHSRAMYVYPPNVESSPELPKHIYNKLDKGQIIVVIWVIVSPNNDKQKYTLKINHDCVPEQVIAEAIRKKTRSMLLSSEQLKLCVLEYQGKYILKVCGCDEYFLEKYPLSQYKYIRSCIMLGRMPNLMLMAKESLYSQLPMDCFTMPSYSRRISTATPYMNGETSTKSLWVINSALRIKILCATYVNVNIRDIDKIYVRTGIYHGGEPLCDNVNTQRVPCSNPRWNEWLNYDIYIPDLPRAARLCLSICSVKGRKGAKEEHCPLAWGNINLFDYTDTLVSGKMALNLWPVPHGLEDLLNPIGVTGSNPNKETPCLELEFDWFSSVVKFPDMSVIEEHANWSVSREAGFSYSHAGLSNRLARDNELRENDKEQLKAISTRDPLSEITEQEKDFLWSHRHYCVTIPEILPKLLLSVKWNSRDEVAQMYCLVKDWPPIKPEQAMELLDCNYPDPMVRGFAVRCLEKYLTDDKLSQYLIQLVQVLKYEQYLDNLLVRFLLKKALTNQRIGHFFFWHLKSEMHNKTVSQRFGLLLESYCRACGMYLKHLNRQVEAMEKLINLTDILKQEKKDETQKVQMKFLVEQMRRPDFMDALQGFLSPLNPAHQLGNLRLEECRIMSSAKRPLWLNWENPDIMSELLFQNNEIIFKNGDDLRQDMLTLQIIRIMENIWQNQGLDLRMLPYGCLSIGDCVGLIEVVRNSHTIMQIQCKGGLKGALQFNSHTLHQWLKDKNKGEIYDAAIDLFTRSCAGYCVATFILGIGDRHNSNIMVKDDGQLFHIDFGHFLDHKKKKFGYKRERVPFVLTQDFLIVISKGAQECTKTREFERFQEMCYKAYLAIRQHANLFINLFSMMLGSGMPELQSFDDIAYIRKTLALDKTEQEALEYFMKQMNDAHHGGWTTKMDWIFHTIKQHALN

Row | Structure (SMILES) | IC50 [1] | Ki [2] | Ki [3] | IC50 (cells)
1 | C[C@@H]1COCCN1c1nc(-c2cnc(N)cc2C(F)(F)F)nc(N2CCOC[C@H]2C)n1 | 1700 nM | 684 nM | 171 nM | 1120 nM
2 | C[C@H]1COCCN1c1nc(-c2cnc(N)nc2C(F)(F)F)nc(N2CCOCC2)n1 | 91 nM | 4 nM | 37.9 nM | 164 nM
3 | Nc1cc(C(F)(F)F)c(-c2nc(N3CC4CCC(C3)O4)nc(N3CC4CCC(C3)O4)n2)cn1 | 947 nM | 731 nM | 177 nM | 691 nM
